Source: patent US8124623B2, “5-hydroxymethyl-oxazolidin-2-one-derivatives and their uses as antibacterials” (Actelion Pharmaceuticals Ltd., priority 2006, dated 2012)
Values after ≈ are worked out from the molar mass of the structure shown. Where two headings read alike, the source gives them in different places.

What was measured:
S. aureus A798 = assay: MIC, broth microdilution (NCCLS); type: cell-based; details: for MIC: Staphylococcus aureus
Procedure: These assays have been performed following the description given in “Methods for dilution Antimicrobial Susceptibility Tests for Bacteria that Grow Aerobically, 4th ed.; Approved standard: NCCLS Document M7-A4; National Committee for Clinical Laboratory Standards Villanova, Pa., USA, 1997”. Minimal inhibitory concentrations (MICs; mg/l) were determined in cation-adjusted Mueller-Hinton Broth (BBL) by a microdilution method following NCCLS guidelines (National Committee for Clinical Laboratory Standards. Methods for Dilution Antimicrobial Susceptibility). The pH1 of the test medium was 7.2-7.3. In the particular case wherein the compound to be tested is a compound of formula IPDc wherein at least one of R^1 and R^2 represents OPO3H2, then the test was carried out in the presence of human alkaline phosphatase (concentration: 1 U/mL). In the particular case wherein the compound to be tested is a compound of formula IPDG wherein R^1 represents a group OCOR^5, then the test may be carried out in the presence of 50% human serum.

[1] = test system: 209 diverse clinical isolates of C. difficile; assay: MIC, CLSI agar dilution, clinical isolates; type: cell-based, Clostridium difficile; details: Clostridioides difficile, 209 clinical isolates of C. difficile
[2] = test system: C. difficile strain NC13366; type: cell-based
C. difficile ATCC 43596 = assay: MIC, anaerobic broth microdilution, reference strains; type: cell-based, Clostridium difficile; details: Clostridioides difficile, ATCC43596, 48 h, read-out: MIC regarding C. difficile ATCC 43596
C. difficile ATCC 9689 = assay: as above; type: cell-based, Clostridium difficile; details: Clostridioides difficile, ATCC9689, 48 h, read-out: MIC regarding C. difficile ATCC 9689
C. difficile NC 13366 = assay: as above; type: cell-based, Clostridium difficile; details: Clostridioides difficile, NC13366, 48 h, read-out: MIC regarding C. difficile NC 13366
C. perfringens DSM 756 = assay: microbe, parasite or virus in culture; type: cell-based; details: Clostridium perfringens, DSM756, 48 h, read-out: MIC regarding C. perfringens DSM 756
M. catarrhalis A894 = assay: MIC, broth microdilution (NCCLS); type: cell-based
S. Pneumoniae 49619 = assay: MIC, broth microdilution (NCCLS); type: cell-based
Procedure: (§1) These assays have been performed following the description given in “Methods for dilution Antimicrobial Susceptibility Tests for Bacteria that Grow Aerobically, 4th ed.; Approved standard: NCCLS Document M7-A4; National Committee for Clinical Laboratory Standards Villanova, Pa., USA, 1997”. Minimal inhibitory concentrations (MICs; mg/l) were determined in cation-adjusted Mueller-Hinton Broth (BBL) by a microdilution method following NCCLS guidelines (National Committee for Clinical Laboratory Standards. Methods for Dilution Antimicrobial Susceptibility). The pH1 of the test medium was 7.2-7.3.

E. faecalis 29212 = assay: MIC, broth microdilution (NCCLS); type: cell-based; details: Enterococcus faecalis, read-out: MIC against E. faecalis 29212
Procedure: as §1

[3] = A798, in the absence of human serum, read-out: MIC against S. aureus A798
[4] = A798, read-out: MIC S. aureus A798
[5] = A798, in the presence of human alkaline phosphatase (1 U/mL), read-out: MIC against S. aureus A798
[6] = A798, phosphatase absent, read-out: MIC against S. aureus A798

SMILES: C[C@H](N)C(=O)OC[C@H]1CN(c2ccc(OCC3(O)CCN(c4cc5c(cc4F)c(=O)c(C(=O)O)cn5C4CC4)CC3)c(F)c2)C(=O)O1.Cl [Example 4, 7-(4-{-4-[(R)-5-((S)-2-amino-propionyloxymethyl)-2-oxo-oxazolidin-3-yl]-2-fluoro-phenoxymethyl}-4-hydroxy-piperidin-1-yl)-1-cyclopropyl-6-fluoro-4-oxo-1,4-dihydro-quinoline-3-carboxylic acid hydrochloride]
- MIC (S. aureus A798; [3]): 0.5 µg/mL

SMILES: Cc1ncc([N+](=O)[O-])n1CCO [metronidazole]
- MIC90 [1]: 1 µg/mL (≈ 5.84 µM)
- de novo toxin A production in supernatants ([2]; 1 and 8 μg/mL, day 5 vs day 1, high density stationary phase cultures): did not inhibit toxin A production under these conditions or did so only weakly

SMILES: O=C(O)c1cn(C2CC2)c2cc(N3CCC(O)(COc4ccc(N5C[C@H](CO)OC5=O)cc4F)C3)c(F)cc2c1=O (mixture of isomers) [Example 6, 1-cyclopropyl-6-fluoro-7-{(RS)-3-[2-fluoro-4-((R)-5-hydroxymethyl-2-oxo-oxazolidin-3-yl)-phenoxymethyl]-3-hydroxy-pyrrolidin-1-yl}-4-oxo-1,4-dihydro-quinoline-3-carboxylic acid]
- MIC (S. aureus A798; [4]): 1 µg/mL
- MIC (C. difficile ATCC 43596): 0.25 µg/mL
- MIC (C. difficile ATCC 9689): 0.5 µg/mL
- MIC (C. difficile NC 13366): 0.25 µg/mL
- MIC (C. perfringens DSM 756): 0.125 µg/mL

SMILES: CN[C@H](CC(C)C)C(=O)N[C@H]1C(=O)N[C@@H](CC(N)=O)C(=O)N[C@H]2C(=O)N[C@H]3C(=O)N[C@H](C(=O)N[C@H](C(=O)O)c4cc(O)cc(O)c4-c4cc3ccc4O)[C@H](O)c3ccc(c(Cl)c3)Oc3cc2cc(c3O[C@@H]2O[C@H](CO)[C@@H](O)[C@H](O)[C@H]2O[C@H]2C[C@](C)(N)[C@H](O)[C@H](C)O2)Oc2ccc(cc2Cl)[C@H]1O [vancomycin]
- de novo toxin A production in supernatants [2]: did not inhibit toxin A production under these conditions or did so only weakly

SMILES: C[C@H](N)C(=O)OC[C@H]1CN(c2ccc(OCC3CCN(c4cc5c(cc4F)c(=O)c(C(=O)O)cn5C4CC4)CC3)c(F)c2)C(=O)O1.Cl [Example 12, 7-(4-{4-[(R)-5-((S)-2-amino-propionyloxymethyl)-2-oxo-oxazolidin-3-yl]-2-fluoro-phenoxymethyl}-piperidin-1-yl)-1-cyclopropyl-6-fluoro-4-oxo-1,4-dihydro-quinoline-3-carboxylic acid hydrochloride]
- MIC (S. aureus A798; [3]): 0.5 µg/mL

SMILES: COc1c(N2CCC(O)(COc3ccc(N4C[C@H](CO)OC4=O)cc3F)C2)c(F)cc2c(=O)c(C(=O)O)cn(C3CC3)c12 (mixture of isomers) [Example 7, 1-cyclopropyl-6-fluoro-7-{(RS)-3-[2-fluoro-4-((R)—S-hydroxymethyl-2-oxo-oxazolidin-3-yl)-phenoxymethyl]-3-hydroxy-pyrrolidin-1-yl}-8-methoxy-4-oxo-1,4-dihydro-quinoline-3-carboxylic acid]
- MIC S. aureus A798 (S. aureus A798): 1 µg/mL (≈ 1.66 µM)
- MIC M. catarrhalis A894 (M. catarrhalis A894): 0.063 µg/mL (≈ 0.105 µM)
- MIC S. Pneumoniae 49619 (S. Pneumoniae 49619): 0.25 µg/mL (≈ 0.416 µM)

SMILES: O=C(O)c1cn(C2CC2)c2cc(N3CCC(COc4ccc(N5C[C@H](CO)OC5=O)cc4F)CC3)c(F)cc2c1=O [Example 2, 1-cyclopropyl-6-fluoro-7-{4-[2-fluoro-4-((R)-5-hydroxymethyl-2-oxo-oxazolidin-3-yl)-phenoxymethyl]-piperidin-1-yl}-4-oxo-1,4-dihydro-quinoline-3-carboxylic acid]
- MIC (S. aureus A798; [4]): 0.25 µg/mL (≈ 0.439 µM)

SMILES: O=C(O)c1c[nH]c2nc(N3CCC(O)(COc4ccc(N5C[C@H](CO)OC5=O)cc4F)CC3)c(F)cc2c1=O [Example 14, 6-fluoro-7-{4-[2-fluoro-4-((R)-5-hydroxymethyl-2-oxo-oxazolidin-3-yl)-phenoxymethyl]-4-hydroxy-piperidin-1-yl}-4-oxo-1,4-dihydro-[1,8]naphthyridine-3-carboxylic acid]
- MIC (S. aureus A798; [4]): 4 µg/mL (≈ 7.32 µM)

SMILES: O=C(O)c1cn(C2CC2)c2cc(N3CCC(COc4ccc(N5C[C@H](CO)OC5=O)cc4F)C3)c(F)cc2c1=O (mixture of isomers) [Example 8, 1-cyclopropyl-6-fluoro-7-{(RS)-3-[2-fluoro-4-((R)-5-hydroxymethyl-2-oxo-oxazolidin-3-yl)-phenoxymethyl]-pyrrolidin-1-yl}-4-oxo-1,4-dihydro-quinoline-3-carboxylic acid]
- MIC (S. aureus A798; [4]): 0.125 µg/mL

SMILES: CCn1cc(C(=O)O)c(=O)c2cc(F)c(N3CCC(COc4ccc(N5C[C@H](CO)OC5=O)cc4F)CC3)cc21 [Example 11, 1-ethyl-6-fluoro-7-{4-[2-fluoro-4-((R)-5-hydroxymethyl-2-oxo-oxazolidin-3-yl)-phenoxymethyl]-piperidin-1-yl}-4-oxo-1,4-dihydro-quinoline-3-carboxylic acid]
- MIC (S. aureus A798; [4]): > 16 µg/mL
- MIC (E. faecalis 29212): 8 µg/mL (≈ 14.3 µM)

SMILES: O=C(O)c1c[nH]c2cc(N3CCC(O)(COc4ccc(N5C[C@H](CO)OC5=O)cc4F)CC3)c(F)cc2c1=O [Example 13, 6-fluoro-7-{4-[2-fluoro-4-((R)-5-hydroxymethyl-2-oxo-oxazolidin-3-yl)-phenoxymethyl]-4-hydroxy-piperidin-1-yl}-4-oxo-1,4-dihydro-quinoline-3-carboxylic acid]
- MIC (S. aureus A798; [4]): 2 µg/mL (≈ 3.67 µM)

SMILES: COc1c(N2CCC(COc3ccc(N4C[C@H](CO)OC4=O)cc3F)C2)c(F)cc2c(=O)c(C(=O)O)cn(C3CC3)c12 (mixture of isomers) [Example 9, 1-cyclopropyl-6-fluoro-7-{(RS)-3-[2-fluoro-4-((R)-5-hydroxymethyl-2-oxo-oxazolidin-3-yl)-phenoxymethyl]-pyrrolidin-1-yl}-8-methoxy-4-oxo-1,4-dihydro-quinoline-3-carboxylic acid]
- MIC (S. aureus A798; [4]): 1 µg/mL

SMILES: O=C(O)c1cn(C2CC2)c2cc(N3CCC(O)(COc4ccc(N5C[C@H](COP(=O)(O)O)OC5=O)cc4F)CC3)c(F)cc2c1=O [Example 5, 1-cyclopropyl-6-fluoro-7-{4-[2-fluoro-4-((R)-2-oxo-5-phosphonooxymethyl-oxazolidin-3-yl)-phenoxymethyl]-4-hydroxy-piperidin-1-yl}-4-oxo-1,4-dihydro-quinoline-3-carboxylic acid]
- MIC (S. aureus A798; [5]): 0.25 µg/mL
- MIC (S. aureus A798; [6]): > 16 µg/mL

SMILES: O=C(O)c1cn(C2CC2)c2nc(N3CCC(O)(COc4ccc(N5C[C@H](CO)OC5=O)cc4F)CC3)c(F)cc2c1=O [Example 3, 1-cyclopropyl-6-fluoro-7-[4-[2-fluoro-4-((R)-5-hydroxymethyl-2-oxo-oxazolidin-3-yl)-phenoxymethyl]-4-hydroxy-piperidin-1-yl]-4-oxo-1,4-dihydro-[1,8]naphthyridine-3-carboxylic acid]
- MIC (S. aureus A798; [4]): 0.25 µg/mL (≈ 0.426 µM)
- MIC (M. catarrhalis A894; Moraxella catarrhalis, A894): 0.5 µg/mL (≈ 0.852 µM)

SMILES: O=C(O)c1cn(C2CC2)c2cc(N3CCC(COc4ccc(N5C[C@H](CO)OC5=O)cc4F)(OP(=O)(O)O)CC3)c(F)cc2c1=O [Example 10, 1-cyclopropyl-6-fluoro-7-{4-[2-fluoro-4-((R)-5-hydroxymethyl-2-oxo-oxazolidin-3-yl)-phenoxymethyl]-4-phosphonooxy-piperidin-1-yl}-4-oxo-1,4-dihydro-quinoline-3-carboxylic acid]
- MIC (S. aureus A798; [5]): 0.5 µg/mL
- MIC (S. aureus A798; [6]): 16 µg/mL (≈ 24 µM)
